The source of these data is PMC8839210, “Identification of Inhibitory Activities of Dietary Flavonoids against URAT1, a Renal Urate Re-Absorber: In Vitro Screening and Fractional Approach Focused on Rooibos Leaves” (Nutrients, 2022).

Some results are limits rather than exact numbers.

Assay [1] deals with T1, URAT1 (Homo sapiens, UniProt Q96S37).
T1 construct: The complete human URAT1 cDNA in pEGFP-C1; expressed in transfected cells; host or cells: 293A cells (human embryonic kidney 293-derived), transient transfection with PEI-MAX
T1 sequence (Q96S37 1-553): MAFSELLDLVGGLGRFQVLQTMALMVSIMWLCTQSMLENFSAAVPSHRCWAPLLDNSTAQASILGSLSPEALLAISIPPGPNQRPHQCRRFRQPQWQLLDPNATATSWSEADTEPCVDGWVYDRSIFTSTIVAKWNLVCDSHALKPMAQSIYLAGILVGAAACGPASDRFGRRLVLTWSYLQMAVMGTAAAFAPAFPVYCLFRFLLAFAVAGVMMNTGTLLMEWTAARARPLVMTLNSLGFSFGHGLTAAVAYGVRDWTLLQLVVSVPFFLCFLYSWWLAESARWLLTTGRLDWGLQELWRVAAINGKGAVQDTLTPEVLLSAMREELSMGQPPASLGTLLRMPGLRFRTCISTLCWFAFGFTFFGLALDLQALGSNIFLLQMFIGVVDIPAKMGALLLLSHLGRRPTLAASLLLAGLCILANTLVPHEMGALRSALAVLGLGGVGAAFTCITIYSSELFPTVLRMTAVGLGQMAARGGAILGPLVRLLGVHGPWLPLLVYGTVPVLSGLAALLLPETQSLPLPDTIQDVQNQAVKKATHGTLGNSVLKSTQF
Nature of the assay: Urate transport assay using URAT1-expressing 293A cells. It is filed as cell-based. The note with it: for remaining activity at 100 µM: 293A, authentic chemical 100 μM, mean ± S.D., n = 3, read-out: URAT1-mediated urate transport activity, % of the control; for remaining activity at 100 µM / IC50: 20 s; for IC50: [14C]-urate 5 μM, 37 °C, URAT1-expressing 293A cells, read-out: IC50 against URAT1-mediated urate transport. The method, then:
After 24 h, each vector was transiently transfected into the cells (1 μg of plasmid/5 μL of PEI-MAX/well). At 24 h after transfection, the culture medium was replaced with fresh one.
Briefly, 48 h after plasmid transfection, cells were washed twice with Buffer T2 and then pre-incubated in Buffer T2 for 15 min at 37 °C. Then, the buffer was exchanged with pre-warmed fresh Buffer T2 containing radiolabeled urate ([8-^14C]-uric acid; final concentration, 5 μM) with or without the test compound at the indicated concentrations (0, 0.3, 1, 3, 10, 30, 100, 300, or 500 μM); the cells were further incubated for 20 s at 37 °C; as vehicle control, 1% DMSO was used in this study. Subsequently, the cells were washed five times with ice-cold Buffer T2; then, the cells were lysed with 0.2 M NaOH solution (500 μL/well) on ice. The resulting lysates were neutralized with 1 M HCl solution (100 μL/well). […] Using a Pierce BCA Protein Assay Kit (Thermo Fisher Scientific, Kanagawa, Japan), protein concentration was determined. Urate transport activity was calculated as the incorporated clearance (μL/mg protein/min): (incorporated level of urate [DPM/mg protein/min]/urate level in the incubation mixture [DPM/μL]). URAT1-dependent urate transport activity was calculated by subtracting the urate transport activity of mock (control) cells from that of URAT1-expressing cells.
Urate uptake was examined in the presence of several concentrations of each test compound to determine their IC50 values. Then, URAT1-mediated transport activities were expressed as a percentage of the control (100%).

On the set-up of assay [2]: method as in PMID 26785820. The note with it: healthy males, four weeks, cited from earlier work.
The test system of assay [3] is xanthine oxidoreductase (XOD). The note with it: cited from earlier work.
The target of assay [4] is T1, URAT1. To be noted: cited from earlier work.

Turning to `O=c1c(O)c(-c2ccc(O)c(O)c2)oc2cc(O)ccc12` [Fisetin], at URAT1 [1], the remaining activity at 100 µM is below 50% and the IC50 was 7.5 µM.
Turning to `O=c1c(-c2ccc(O)cc2)coc2cc(O)cc(O)c12` [Genistein], on URAT1 [1], the remaining activity at 100 µM is below 50% and the IC50 stood at 101 µM.
With `O=c1c(O)c(-c2ccc(O)c(O)c2)oc2c(O)c(O)cc(O)c12` [Gossypetin], on URAT1 [1], the remaining activity at 100 µM is below 50% and the IC50 stood at 31.3 µM.
Taken in the same sequence, the figures for `O=c1cc(-c2ccc(O)c(O)c2)oc2cc(O)cc(O)c12` [Luteolin] were below 50% and 25.7 µM.
In the case of `O=c1c(O)c(-c2cc(O)c(O)c(O)c2)oc2cc(O)cc(O)c12` [Myricetin], on URAT1 [1], the remaining activity at 100 µM was below 50% and the IC50 came to 18.1 µM.
For the compound `O=c1c(O)c(-c2ccc(O)c(O)c2)oc2cc(O)c(O)c(O)c12` [Quercetagetin], at URAT1 [1], the remaining activity at 100 µM was below 50% and the IC50 came to 18.4 µM.
As to `O=c1c(O)c(-c2ccc(O)c(O)c2)oc2cc(O)cc(O)c12` [Quercetin], at URAT1 [1] (300 μM, experimentally maximum concentration), the “Effect on URAT1-mediated urate transport (in words)” value is listed as “inhibited URAT1”. Also, at URAT1 [1], the IC50 was 12.6 µM. The “Plasma uric acid concentration, mean difference” value in assay [2] (500 mg quercetin daily as single tablet, mean plasma uric acid 5.5 mg/dL) was -0.45 mg/dL. Moreover, in assay [2] (500 mg quercetin daily), the “Urinary uric acid output over 24 h (24 h-UUA), before vs after treatment” value is on record as “no significant difference”. In assay [3], the “XOD inhibition (in words)” value is listed as “inhibitory activity”.
As to `O=C(CCc1ccc(O)c(O)c1)c1c(O)cc(O)c([C@@H]2O[C@H](CO)[C@@H](O)[C@H](O)[C@H]2O)c1O` [aspalathin, reference compound], the “XOD inhibition (in words)” value in assay [3] was “inhibits XOD”.
Turning to `O=c1c(O)c(-c2ccc(O)cc2O)oc2cc(O)cc(O)c12` [morin, Morin], the remaining activity at 100 µM at URAT1 [1] was below 50%. Also, on URAT1 [4] (previous report), the “URAT1 inhibition (in words)” value is “URAT1 inhibitor”.
Turning to `O=C(/C=C/c1ccc(O)cc1)c1c(O)cc(O)cc1O` [naringenin chalcone, Naringenin chalcone], the remaining activity at 100 µM at URAT1 [1] is below 50%.
Consider `O=C1C[C@@H](c2ccc(O)cc2)Oc2cc(O)cc(O)c21` [naringenin, reference compound], for which the “URAT1-mediated urate transport activity, % of the control” value on URAT1 [4] (100 μM, previous study of the authors) is on record as 17.9 ± 7.7%.

For orientation: IC50 means the concentration at which inhibition is half-maximal.
